Laboratory results as given in PubChem BioAssay AID2060508 (Molecular Pharmacology Branch, DTP, NCI, 2025).

Tested on: 454973-116-R2-J3-PDC spheroids, viability, % test/control
Assay: Anticancer human tumor 454973-116-R2-J3-PDC patient-derived pancreatic carcinoma cell line growth inhibition [GQUAD]
Conditions: spheroids with HUVEC and MSC; for IC50: curve of first compound; for viability, T/C: stronger effect = lower value
Outline: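 Multi-cell-type spheroids of tumor cells with HUVEC and mesenchymal stem cells, treated with drug combinations. Concentrations descend in half-log steps from near clinical Cmax, or from 10 microM where Cmax is unknown; viability read-out.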

[1] = second compound 0.0316 µM, first compound 0.0316 µM
[2] = second compound 0.0316 µM, first compound 0.316 µM
[3] = second compound 0.1 µM, first compound 0.0316 µM
[4] = second compound 0.1 µM, first compound 0.316 µM
[5] = second compound 0.316 µM, first compound 0.0316 µM
[6] = second compound 0.316 µM, first compound 0.316 µM
[7] = second compound 1 µM, first compound 0.0316 µM
[8] = second compound 1 µM, first compound 0.316 µM
[9] = second compound 3.16 µM, first compound 0.0316 µM
[10] = second compound 3.16 µM, first compound 0.316 µM
[11] = second compound 10 µM, first compound 0.0316 µM
[12] = second compound 10 µM, first compound 0.316 µM
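Note: spheroids exposed to compounds for seven days.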
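Throughout, for viability, T/C: 100% = DMSO vehicle control viability.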

Q: What does the source list for `C=CC(=O)N1CCN(c2nc(=O)n(-c3c(C)ccnc3C(C)C)c3nc(-c4c(O)cccc4F)c(F)cc23)C(C)C1` (centres undefined) + Cc1cnc(CNC(=O)c2c(=O)c3ccc(N4CCCN(C)CC4)nc3n3c2sc2ccccc23)cn1?
A: IC50 (second compound 0.0316 µM): > 10000 nM; IC50 (second compound 0.1 µM): > 10000 nM; IC50 (second compound 0.316 µM): > 10000 nM; IC50 (second compound 1 µM): > 10000 nM; IC50 (second compound 3.16 µM): > 10000 nM; IC50 (second compound 10 µM): < 31.6 nM; viability, T/C [1]: 100%; viability, T/C (second compound 0.0316 µM, first compound 0.1 µM): 94.2%; viability, T/C [2]: 105%; viability, T/C (second compound 0.0316 µM, first compound 1 µM): 116%; viability, T/C (second compound 0.0316 µM, first compound 3.16 µM): 118%; viability, T/C (second compound 0.0316 µM, first compound 10 µM): 118%; viability, T/C [3]: 78.1%; viability, T/C (second compound 0.1 µM, first compound 0.1 µM): 80.1%; viability, T/C [4]: 87.6%; viability, T/C (second compound 0.1 µM, first compound 1 µM): 96.9%; viability, T/C (second compound 0.1 µM, first compound 3.16 µM): 104%; viability, T/C (second compound 0.1 µM, first compound 10 µM): 97.1%; viability, T/C [5]: 79.2%; viability, T/C (second compound 0.316 µM, first compound 0.1 µM): 79.6%; viability, T/C [6]: 71.1%; viability, T/C (second compound 0.316 µM, first compound 1 µM): 78.5%; viability, T/C (second compound 0.316 µM, first compound 3.16 µM): 85.8%; viability, T/C (second compound 0.316 µM, first compound 10 µM): 76.7%; viability, T/C [7]: 73.9%; viability, T/C (second compound 1 µM, first compound 0.1 µM): 72.4%; viability, T/C [8]: 75.2%; viability, T/C (second compound 1 µM, first compound 1 µM): 81.1%; viability, T/C (second compound 1 µM, first compound 3.16 µM): 90.8%; viability, T/C (second compound 1 µM, first compound 10 µM): 73.4%; viability, T/C [9]: 59.2%; viability, T/C (second compound 3.16 µM, first compound 0.1 µM): 64.3%; viability, T/C [10]: 78.5%; viability, T/C (second compound 3.16 µM, first compound 1 µM): 74.4%; viability, T/C (second compound 3.16 µM, first compound 3.16 µM): 86.6%; viability, T/C (second compound 3.16 µM, first compound 10 µM): 76.7%; viability, T/C [11]: 0.33%; viability, T/C (second compound 10 µM, first compound 0.1 µM): 19.3%; viability, T/C [12]: 58.5%; viability, T/C (second compound 10 µM, first compound 1 µM): 70.6%; viability, T/C (second compound 10 µM, first compound 3.16 µM): 0.37%; viability, T/C (second compound 10 µM, first compound 10 µM): 1.42%

Q: Which IC50 (second compound 0.0316 µM) does the source give for `CC[C@@]1(O)C(=O)OCc2c1cc1n(c2=O)Cc2cc3c(CN(C)C)c(O)ccc3nc2-1` + Cc1cnc(CNC(=O)c2c(=O)c3ccc(N4CCCN(C)CC4)nc3n3c2sc2ccccc23)cn1 here?
A: The IC50 was 29.5 nM.

Q: And the IC50 (second compound 0.1 µM)?
A: The IC50 was 20.4 nM.

Q: What about the IC50 (second compound 0.316 µM) of the same molecule?
A: The IC50 was 17.5 nM.

Q: What about the IC50 (second compound 1 µM) of the same molecule?
A: Its IC50 is 24.4 nM.

Q: And the IC50 (second compound 3.16 µM)?
A: Its IC50 is 189 nM.

Q: What about the IC50 (second compound 10 µM) of the same molecule?
A: The IC50 was less than 0.999 nM.

Q: What about the viability, T/C (second compound 0.0316 µM, first compound 0.000999 µM) of the same molecule?
A: Its viability, T/C is 104%.

Q: And the viability, T/C (second compound 0.0316 µM, first compound 0.00316 µM)?
A: The viability, T/C was 95.8%.

Q: What about the viability, T/C (second compound 0.0316 µM, first compound 0.00999 µM) of the same molecule?
A: Its viability, T/C is 84.9%.

Q: What about the viability, T/C [1] of the same molecule?
A: The viability, T/C was 49%.

Q: What about the viability, T/C (second compound 0.0316 µM, first compound 0.0999 µM) of the same molecule?
A: Its viability, T/C is 21.9%.

Q: And the viability, T/C [2]?
A: The viability, T/C was 23.7%.

Q: What about the viability, T/C (second compound 0.1 µM, first compound 0.000999 µM) of the same molecule?
A: The viability, T/C was 90.8%.

Q: And the viability, T/C (second compound 0.1 µM, first compound 0.00316 µM)?
A: The viability, T/C was 90.2%.

Q: And the viability, T/C (second compound 0.1 µM, first compound 0.00999 µM)?
A: Its viability, T/C is 77%.

Q: And the viability, T/C [3]?
A: The viability, T/C was 33.4%.

Q: What about the viability, T/C (second compound 0.1 µM, first compound 0.0999 µM) of the same molecule?
A: The viability, T/C was 24.8%.

Q: And the viability, T/C [4]?
A: The viability, T/C was 23.1%.

Q: What about the viability, T/C (second compound 0.316 µM, first compound 0.000999 µM) of the same molecule?
A: Its viability, T/C is 79.9%.

Q: And the viability, T/C (second compound 0.316 µM, first compound 0.00316 µM)?
A: Its viability, T/C is 69.1%.

Q: What about the viability, T/C (second compound 0.316 µM, first compound 0.00999 µM) of the same molecule?
A: The viability, T/C was 55.6%.

Q: And the viability, T/C [5]?
A: Its viability, T/C is 43.1%.

Q: What about the viability, T/C (second compound 0.316 µM, first compound 0.0999 µM) of the same molecule?
A: Its viability, T/C is 39.2%.

Q: And the viability, T/C [6]?
A: The viability, T/C was 32.9%.

Q: What about the viability, T/C (second compound 1 µM, first compound 0.000999 µM) of the same molecule?
A: The viability, T/C was 67.1%.

Q: And the viability, T/C (second compound 1 µM, first compound 0.00316 µM)?
A: The viability, T/C was 67.6%.

Q: And the viability, T/C (second compound 1 µM, first compound 0.00999 µM)?
A: Its viability, T/C is 54.9%.

Q: What about the viability, T/C [7] of the same molecule?
A: Its viability, T/C is 48.4%.

Q: And the viability, T/C (second compound 1 µM, first compound 0.0999 µM)?
A: The viability, T/C was 50%.

Q: And the viability, T/C [8]?
A: The viability, T/C was 47.4%.

Q: What about the viability, T/C (second compound 3.16 µM, first compound 0.000999 µM) of the same molecule?
A: The viability, T/C was 61.2%.

Q: What about the viability, T/C (second compound 3.16 µM, first compound 0.00316 µM) of the same molecule?
A: Its viability, T/C is 63.4%.

Q: What about the viability, T/C (second compound 3.16 µM, first compound 0.00999 µM) of the same molecule?
A: The viability, T/C was 60.2%.

Q: What about the viability, T/C [9] of the same molecule?
A: The viability, T/C was 49.6%.

Q: What about the viability, T/C (second compound 3.16 µM, first compound 0.0999 µM) of the same molecule?
A: The viability, T/C was 61.7%.

Q: And the viability, T/C [10]?
A: Its viability, T/C is 42.7%.

Q: What about the viability, T/C (second compound 10 µM, first compound 0.000999 µM) of the same molecule?
A: Its viability, T/C is 19.2%.

Q: And the viability, T/C (second compound 10 µM, first compound 0.00316 µM)?
A: The viability, T/C was 17.5%.

Q: And the viability, T/C (second compound 10 µM, first compound 0.00999 µM)?
A: The viability, T/C was 57%.

Q: What about the viability, T/C [11] of the same molecule?
A: Its viability, T/C is 45.9%.

Q: What about the viability, T/C (second compound 10 µM, first compound 0.0999 µM) of the same molecule?
A: The viability, T/C was 0.31%.

Q: What about the viability, T/C [12] of the same molecule?
A: Its viability, T/C is 0.23%.
